22 compounds from ChEMBL document CHEMBL3621073, “Bile acid amphiphiles with tunable head groups as highly selective antitubercular agents” (Medchemcomm, 2014) can be followed below.

Assay [1] relates to Mycobacterium tuberculosis. The experiment in a line: Antimycobacterial activity against Mycobacterium bovis BCG after 14 days by inverted microscopic analysis. Format: functional. Conditions: variant bovis BCG, 336 h.
Assay [2] concerns Mycobacterium tuberculosis. Nature of the assay: Antimycobacterial activity against Mycobacterium bovis BCG assessed as effect on membrane morphology by atomic force microscopic analysis. Type of assay: functional, organism-based. Particulars: variant bovis BCG.
In assay [3] the test system is Mycobacterium tuberculosis. Nature of the assay: Antimycobacterial activity against Mycobacterium bovis BCG assessed as effect on membrane topology by atomic force microscopic analysis. Type of assay: functional, organism-based. Particulars: variant bovis BCG.
Assay [4] has as its system Mycobacterium tuberculosis. The experiment in a line: Antimycobacterial activity against Mycobacterium bovis BCG assessed as rugged membrane surface by atomic force microscopic analysis. Conditions: variant bovis BCG. Type of assay: functional, organism-based.
The test system of assay [5] is Mycobacterium tuberculosis. The experiment in a line: Antimycobacterial activity against Mycobacterium bovis BCG assessed as pore and grove formation by atomic force microscopic analysis. Type of assay: functional, organism-based. Conditions: variant bovis BCG.
The test system of assay [6] is Mycobacterium tuberculosis. Nature of the assay: Antimycobacterial activity against Mycobacterium bovis BCG after 14 days by inverted microscopic analysis in presence of plasma. Type of assay: functional. Conditions: variant bovis BCG, 336 h.

The structures appear in SMILES notation. In brackets after ≈: the same amount, converted by molar mass. Activity calls are given as the source filed them. The rule behind the calls is not given here.

As a reminder, the MIC99 is the lowest concentration that inhibits either 99% of growth or 99% of the strains tested, depending on the study. As to `COC(=O)CC[C@@H](C)[C@H]1CC[C@H]2[C@@H]3[C@H](OC(=O)C[N+](C)(C)C)C[C@@H]4C[C@H](OC(=O)C[N+](C)(C)C)CC[C@]4(C)[C@H]3CC[C@]12C`, the MIC99 in assay [1] is 4.68 µM. Consider `COC(=O)CC[C@@H](C)[C@H]1CC[C@H]2[C@@H]3[C@H](OC(=O)CN)C[C@@H]4C[C@H](OC(=O)CN)CC[C@]4(C)[C@H]3C[C@H](OC(=O)CN)[C@]12C.Cl.Cl.Cl`, for which the outcome in assay [2] and in assay [3] was inactive. In assay [1], this compound showed an MIC99 of 18.8 µM. Turning to `COC(=O)CC[C@@H](C)[C@H]1CC[C@H]2[C@@H]3CC[C@@H]4C[C@H](OC(=O)CN)CC[C@]4(C)[C@H]3CC[C@]12C`, the MIC99 in assay [1] was above 50 µM.

In assay [1], `COC(=O)CC[C@@H](C)[C@H]1CC[C@H]2[C@@H]3[C@H](OC(=O)C[n+]4ccccc4)C[C@@H]4C[C@H](OC(=O)C[n+]5ccccc5)CC[C@]4(C)[C@H]3C[C@H](OC(=O)C[n+]3ccccc3)[C@]12C.[Cl-].[Cl-].[Cl-]` returned an MIC99 of 6.25 µM. With `COC(=O)CC[C@@H](C)[C@H]1CC[C@H]2[C@@H]3CC[C@@H]4C[C@H](OC(=O)C[n+]5ccccc5)CC[C@]4(C)[C@H]3CC[C@]12C`, the MIC99 in assay [1] is above 50 µM. The same measure, in the same setting: the value for `C[C@H]1COc2c(N3CCN(C)CC3)c(F)cc3c(=O)c(C(=O)O)cn1c23` [LEVOFLOXACIN] was 0.39 µM (≈ 0.141 µg/mL); that for `COC(=O)CC[C@@H](C)[C@H]1CC[C@H]2[C@@H]3[C@H](OC(=O)C[N+]4(C)CCCCC4)C[C@@H]4C[C@H](OC(=O)C[N+]5(C)CCCCC5)CC[C@]4(C)[C@H]3CC[C@]12C` was 6.25 µM; that for `COC(=O)CC[C@@H](C)[C@H]1CC[C@H]2[C@@H]3[C@H](OC(=O)C[n+]4ccc(N(C)C)cc4)C[C@@H]4C[C@H](OC(=O)C[n+]5ccc(N(C)C)cc5)CC[C@]4(C)[C@H]3CC[C@]12C` was 3.12 µM. In turn, `COC(=O)CC[C@@H](C)[C@H]1CC[C@H]2[C@@H]3[C@H](OC(=O)C[N+](C)(C)C)C[C@@H]4C[C@H](OC(=O)C[N+](C)(C)C)CC[C@]4(C)[C@H]3C[C@H](OC(=O)C[N+](C)(C)C)[C@]12C.[Cl-].[Cl-].[Cl-]` returned an MIC99 in assay [1] of 6.25 µM. `COC(=O)CC[C@@H](C)[C@H]1CC[C@H]2[C@@H]3CC[C@@H]4C[C@H](OC(=O)C[n+]5ccc(N(C)C)cc5)CC[C@]4(C)[C@H]3C[C@H](OC(=O)C[n+]3ccc(N(C)C)cc3)[C@]12C` gave an MIC99 in assay [1] of 2.34 µM.

`COC(=O)CC[C@@H](C)[C@H]1CC[C@H]2[C@@H]3[C@H](OC(=O)C[N+]4(C)CCCCC4)C[C@@H]4C[C@H](OC(=O)C[N+]5(C)CCCCC5)CC[C@]4(C)[C@H]3C[C@H](OC(=O)C[N+]3(C)CCCCC3)[C@]12C.[Cl-].[Cl-].[Cl-]` returned an MIC99 in assay [1] of 6.25 µM.

As for `COC(=O)CC[C@@H](C)[C@H]1CC[C@H]2[C@@H]3[C@H](OC(=O)CN)C[C@@H]4C[C@H](OC(=O)CN)CC[C@]4(C)[C@H]3CC[C@]12C`, the MIC99 in assay [1] came to 37.5 µM (≈ 19.5 µg/mL).

`COC(=O)CC[C@@H](C)[C@H]1CC[C@H]2[C@@H]3[C@H](OC(=O)C[n+]4ccccc4)C[C@@H]4C[C@H](OC(=O)C[n+]5ccccc5)CC[C@]4(C)[C@H]3CC[C@]12C` came in with an MIC99 in assay [1] of 9.38 µM.

Compound `COC(=O)CC[C@@H](C)[C@H]1CC[C@H]2[C@@H]3CC[C@@H]4C[C@H](OC(=O)C[N+]5(C)CCCCC5)CC[C@]4(C)[C@H]3CC[C@]12C` had an MIC99 in assay [1] of 50 µM. Turning to `COC(=O)CC[C@@H](C)[C@H]1CC[C@H]2[C@@H]3CC[C@@H]4C[C@H](OC(=O)C[N+](C)(C)C)CC[C@]4(C)[C@H]3CC[C@]12C`, the MIC99 in assay [1] turned out to be 50 µM. `COC(=O)CC[C@@H](C)[C@H]1CC[C@H]2[C@@H]3CC[C@@H]4C[C@H](OC(=O)C[n+]5ccc(N(C)C)cc5)CC[C@]4(C)[C@H]3CC[C@]12C` had an MIC99 in assay [1] of 50 µM.

In assay [1], `COC(=O)CC[C@@H](C)[C@H]1CC[C@H]2[C@@H]3CC[C@@H]4C[C@H](OC(=O)CN)CC[C@]4(C)[C@H]3C[C@H](OC(=O)CN)[C@]12C` gave an MIC99 of 25 µM (≈ 13 µg/mL). With `COC(=O)CC[C@@H](C)[C@H]1CC[C@H]2[C@@H]3CC[C@@H]4C[C@H](OC(=O)C[N+](C)(C)C)CC[C@]4(C)[C@H]3C[C@H](OC(=O)C[N+](C)(C)C)[C@]12C`, the MIC99 in assay [1] is 25 µM. On the same count and under the same terms, as for `COC(=O)CC[C@@H](C)[C@H]1CC[C@H]2[C@@H]3CC[C@@H]4C[C@H](OC(=O)C[N+]5(C)CCCCC5)CC[C@]4(C)[C@H]3C[C@H](OC(=O)C[N+]3(C)CCCCC3)[C@]12C`, the figure is 3.12 µM. As for `COC(=O)CC[C@@H](C)[C@H]1CC[C@H]2[C@@H]3[C@H](OC(=O)C[n+]4ccc(N(C)C)cc4)C[C@@H]4C[C@H](OC(=O)C[n+]5ccc(N(C)C)cc5)CC[C@]4(C)[C@H]3C[C@H](OC(=O)C[n+]3ccc(N(C)C)cc3)[C@]12C.[Cl-].[Cl-].[Cl-]`, the outcome in assay [4] and in assay [5] was Active. In addition, the MIC99 in assay [1] came to 3.12 µM; in assay [6] it was 6.25 µM. Turning to `COC(=O)CC[C@@H](C)[C@H]1CC[C@H]2[C@@H]3CC[C@@H]4C[C@H](OC(=O)C[n+]5ccccc5)CC[C@]4(C)[C@H]3C[C@H](OC(=O)C[n+]3ccccc3)[C@]12C`, the MIC99 in assay [1] came to 6.25 µM. Compound `NNC(=O)c1ccncc1` [ISONIAZID] returned an MIC99 in assay [1] of 0.78 µM (≈ 0.107 µg/mL).
